Reference: patent US20120070377A1, “COMPOUNDS AND BIOLOGICAL MATERIALS AND USES THEREOF” (priority 2009, published 2012)

Legend:
SKOV3 tumours = assay: PDT therapy in SKOV3 tumour mice; type: in vivo, BALB/c nude mice
Procedure: Female BALB/c nude mice (aged 6-8 weeks old) were implanted with 10^7 SKOV3 tumour cells mixed in 0.1 ml of ice-cold matrigel subcutaneously and the tumours were allowed to grow for 3-6 weeks as xenografts. Mice were maintained in IVC cages (individually-vented cages) in a clean room. Samples were injected in a volume of 0.1 ml, intravenously via the lateral tail vein and the mice were maintained in low light with full food and water (irradiated). At various time points (1-24 hr), mice were culled by cardiac puncture under terminal anesthesia and blood and tissues collected. All the tissues were counted for radioactivity by gamma counting and weighed.
Tumours were set up as described above and injected (iv into the mouse tail vein) with 0.2 ml of free PPa-PEG1 (0.1 mg=33 micromolar concentration) PS on day 1 and day 4. Based on the tumour uptake (see FIG. 10), an HPD laser was used to illuminate the tumours for 20 minutes at 0.5 W after 4 hrs. The mice were anaesthetized beforehand. Laser treatment followed each drug cycle. The tumours were followed for 3 weeks and the % increase in tumour size was plotted (day 0=100%) (see FIG. 12).
Tumours (groups of 6 mice) were set up as described above and injected (iv into the mouse tail vein) with 0.2 ml of C6-PPa-PEG PIC or free PPa-PEG1 PS (1 mg/ml PIC=33 micomolar concentration scFv or 330 micromolar PPa-PEG) on day 1 and day 4. […]

SKOV3 cells = assay: Confocal fluorescence microscopy, intracellular localisation with organelle co-stains; type: cell-based, human
Procedure: Imaging took place at the FILM Imperial College London on a LEICA SP5 MP inverted confocal microscope, at 37° C. and under a CO2 supplemented atmosphere. The water objective (63×) was used in all the experiments. Images were processed using the Leica software, Image J and Powerpoint.
Note: in any experiment where a photosensitiser is used on cells, the experiment is done under subdued lighting exposing the cells to as little light as possible and incubating wrapped in foil. Following addition of PS to cells, cells were no longer observed on the microscope.
Cells were plated on a Labt-Tek® 8 Chambered #1.0 Borosilicate Coverglass System. With some cell lines, it is often useful to use an attachment factor (200 μl, 30 mins, 37° C.) to coat the wells first.
Photosensitiser solutions in phenol red free DMEM (10% FBS, 1% P/S, 0.5% DMSO) were prepared fresh and pre-warmed to 37° C. for 15 mins. The cells were washed with media (1×200 μl) before adding the solutions (200 μl per chamber). Unless otherwise stated, the cells were grown over 20 hrs in a humidified atmosphere (37° C., 5% CO2). The cells were washed (2×200 μl) with prewarmed phenol red free DMEM
(§1) Lysotracker® Green DND-26 was diluted according to manufacturers indications (1 mM stock) and further diluted to twice the working concentration in DMEM (10% FBS, 1% P/S). For use for single colour staining, this was diluted with DMEM (10% FBS, 1% P/S) to a final concentration of 1 μM. When it was used for two colour staining with photosensitisers, a 2 μM solution was twice diluted in photosensitiser solution to give a 1 μM final concentration.
The cells were incubated for 15 mins at 4° C. and a further 30 mins at 37° C. before replacing with fresh medium and imaging.
as §1, with “MitoTracker®” for “Lysotracker®”, “Green” for “Green DND-26”
The cells were incubated for 15 mins at 4° C. and a further 1 hr at 37° C. before replacing with fresh medium and imaging.
ER-Tracker™ Green (BODIPY® FL glibenclamide) was diluted according to manufacturer's indications (1 mM stock) and further diluted to twice the working concentration in HBSS buffer (+2% HEPES). For use for single colour staining, this was diluted with HBSS (+2% HEPES) to a final concentration of 3 μM. When it was used for two colour staining with photosensitisers, a 6 μM solution was twice diluted in photosensitiser solution to give a 3 μM final concentration.
The cells were incubated for 15 mins at 4° C. and a further 1 hr at 37° C. before replacing with fresh buffer and imaging.
Bodipy® FL C5-ceramide complexed to BSA was diluted according to manufacturer's indications (0.5 mM stock) and further diluted to twice the working concentration in HBSS buffer (+2 HEPES). For use for single colour staining, this was diluted with HBSS (+2% HEPES) to a final concentration of 5 μM. When it was used for two colour staining with photosensitisers, a 10 μM solution was twice diluted in photosensitiser solution to give a 5 μM final concentration. The cells were incubated for 15 mins at 4° C. and a further 30 mins at 37° C. before washing with cold HBSS/HEPES (3×100 μl) and replacing with either HBSS/HEPES or photosensitiser solution and incubating at 37° C. for a further 30 mins before replacing with fresh buffer and imaging.

SMILES: CCC1=C(C)c2cc3[nH]c(c(C)c3CC)c(C#CCCCC(=O)ON3C(=O)CCC3=O)c3nc(c4c5[nH]c(cc1n2)c(C)c5C(=O)C4)[C@@H](CCC(=O)OCc1cc(OCCOCCOCCOC)c(OCCOCCOCCOC)c(OCCOCCOCCOC)c1)[C@@H]3C [compound 11, Meso 5-Ethynylhexanoyl succinimido ester pyropheophorbide a-3,4,5-(triethylene glycolmonomethylether) benzyl ester]
- tumour regression compared to untreated (Saline) controls (SKOV3 tumours; C6 PPa-PEG therapy: 0.2 ml iv day 1 and day 4, 1 mg/ml PIC or 0.5 mg/ml free PS, laser 20 minutes 0.5 W after 4 hrs, followed 6 weeks): no significant tumour regression
- tumour regression compared to untreated (Saline) controls (SKOV3 tumours; PPa-PEG only therapy: 0.2 ml iv (0.1 mg) day 1 and day 4, laser 20 minutes 0.5 W after 4 hrs, followed 3 weeks): no significant tumour regression
- golgi localisation (co-localisation with Bodipy ceramide) (SKOV3 cells; FIG. 20): significant yellow staining
- mitochondrial localisation (co-localisation with Mito-tracker) (SKOV3 cells; FIG. 21): significant yellow staining
- lysosomal localisation (co-localisation with Lyso-tracker) (SKOV3 cells; FIG. 22): some yellow staining
- ER localisation (co-localisation with ER-tracker) (SKOV3 cells; FIG. 23): significant yellow staining
